Laboratory results reported in article PMC3425516 (PLoS ONE, 2012).

Experiments:
Test in all cases: NCI-60 cell lines screening
Format in all cases: cell-based, human
[1] = tested on: MCF-7; details: MCF-7, Breast Cancer panel
Experimental: (§1) The NCI-60 cancer cell lines screening was conducted by the NCI’s Developmental Therapeutics Program (DTP; http://www.dtp.nci.nih.gov/branches/btb/ivclsp.html).

[2] = tested on: OVCAR-4; details: OVCAR-4, Ovarian Cancer panel
Experimental: as §1

[3] = tested on: UO-31; details: UO-31, Renal Cancer panel
Experimental: as §1

[4] = tested on: HT29; details: HT29, Colon Cancer panel
Experimental: as §1

[5] = tested on: HCC-2998; details: HCC-2998, Colon Cancer panel
Experimental: as §1

[6] = tested on: NCI-H522; details: NCI-H522, Non-Small Cell Lung Cancer panel
Experimental: as §1

[7] = tested on: PC-3; details: PC-3, Prostate Cancer panel
Experimental: as §1

[8] = tested on: TK-10; details: TK-10, Renal Cancer panel
Experimental: as §1

[9] = tested on: K-562; details: K-562, Leukemia panel
Experimental: as §1

[10] = tested on: OVCAR-5; details: OVCAR-5, Ovarian Cancer panel
Experimental: as §1

[11] = tested on: MDA-MB-468; details: MDA-MB-468, Breast Cancer panel
Experimental: as §1

[12] = tested on: HS 578T
Experimental: as §1

[13] = tested on: OVCAR-3; details: OVCAR-3, Ovarian Cancer panel
Experimental: as §1

[14] = tested on: EKVX; details: Non-Small Cell Lung Cancer panel
Experimental: as §1

[15] = tested on: NCI-H23; details: NCI-H23, Non-Small Cell Lung Cancer panel
Experimental: as §1

[16] = tested on: NCI/ADR-RES; details: Ovarian Cancer panel
Experimental: as §1

[17] = tested on: SK-MEL-5; details: SK-MEL-5, Melanoma panel
Experimental: as §1

[18] = tested on: NCI-H322M; details: Non-Small Cell Lung Cancer panel
Experimental: as §1

[19] = tested on: A549/ATCC; details: Non-Small Cell Lung Cancer panel
Experimental: as §1

[20] = tested on: SK-MEL-2; details: SK-MEL-2, Melanoma panel
Experimental: as §1

[21] = tested on: COLO 205; details: COLO 205, Colon Cancer panel
Experimental: as §1

[22] = tested on: SR; details: Leukemia panel
Experimental: as §1

[23] = tested on: NCI-H226; details: NCI-H226, Non-Small Cell Lung Cancer panel
Experimental: as §1

[24] = tested on: HCT-15; details: HCT-15, Colon Cancer panel
Experimental: as §1

[25] = tested on: SK-MEL-28; details: SK-MEL-28, Melanoma panel
Experimental: as §1

[26] = tested on: U251; details: U251, CNS Cancer panel
Experimental: as §1

[27] = tested on: SN12C; details: Renal Cancer panel
Experimental: as §1

[28] = tested on: SF-268; details: SF-268, CNS Cancer panel
Experimental: as §1

[29] = tested on: MOLT-4; details: MOLT-4, Leukemia panel
Experimental: as §1

[30] = Homo sapiens, read-out: LC50 (the source's name)

O=C(C=Cc1ccc2c(c1)CCN2S(=O)(=O)c1ccccc1)NO [MPT0E028, 3-(1-benzenesulfonyl-2,3-dihydro-1H-indol-5-yl)-N-hydroxy-acrylamide]
GI50 ([1]; Homo sapiens, MCF7): 230 nM | CC50 ([1]; Homo sapiens, MCF7, read-out: LC50 (the source's name)): 62700 nM | TGI [1]: 10500 nM | GI50 ([2]; Homo sapiens): 509 nM | CC50 [2, 30]: > 100000 nM | TGI [2]: 31800 nM | GI50 ([3]; Homo sapiens): 169 nM | CC50 [3, 30]: 5630 nM | TGI [3]: 1460 nM | TGI [4]: 716 nM | GI50 ([4]; Homo sapiens, HT-29): 118 nM | CC50 ([4]; Homo sapiens, HT-29, read-out: LC50 (the source's name)): 68100 nM | TGI [5]: 522 nM | GI50 ([5]; Homo sapiens): 194 nM | CC50 [5, 30]: 2060 nM | GI50 ([6]; Homo sapiens): 167 nM | CC50 [6, 30]: 13000 nM | TGI [6]: 845 nM | GI50 ([7]; Homo sapiens): 240 nM | CC50 [7, 30]: > 100000 nM | TGI [7]: 21000 nM | GI50 ([8]; Homo sapiens): 103 nM | CC50 [8, 30]: 33600 nM | TGI [8]: 660 nM | GI50 ([9]; Homo sapiens, K562): 115 nM | CC50 ([9]; Homo sapiens, K562, read-out: LC50 (the source's name)): > 100000 nM | TGI [9]: >100000 nM | GI50 ([10]; Homo sapiens): 60.2 nM | CC50 [10, 30]: 2580 nM | TGI [10]: 316 nM | GI50 ([11]; Homo sapiens): 196 nM | CC50 [11, 30]: 6310 nM | TGI [11]: 1150 nM | TGI ([12]; HS 578T, Breast Cancer panel): 17900 nM | GI50 ([12]; Homo sapiens, Hs-578T): 253 nM | CC50 ([12]; Homo sapiens, Hs-578T, read-out: LC50 (the source's name)): > 100000 nM | GI50 ([13]; Homo sapiens): 233 nM | CC50 [13, 30]: 7300 nM | TGI [13]: 933 nM | GI50 ([14]; Homo sapiens): 534 nM | TGI [14]: >100000 nM | GI50 ([15]; Homo sapiens): 188 nM | CC50 [15, 30]: 3840 nM | TGI [15]: 922 nM | GI50 ([16]; Homo sapiens): 38.5 nM | CC50 [16, 30]: > 100000 nM | TGI [16]: 239 nM | GI50 ([17]; Homo sapiens): 136 nM | CC50 [17, 30]: 705 nM | TGI [17]: 310 nM | GI50 ([18]; Homo sapiens): 186 nM | CC50 [18, 30]: > 100000 nM | TGI [18]: 11400 nM | GI50 ([19]; Homo sapiens): 230 nM | CC50 [19, 30]: 9030 nM | TGI [19]: 1090 nM | GI50 ([20]; Homo sapiens): 433 nM | CC50 [20, 30]: 34900 nM | TGI [20]: 3890 nM | TGI [21]: 264 nM | GI50 ([21]; Homo sapiens): 128 nM | CC50 [21, 30]: 546 nM | GI50 ([22]; Homo sapiens): 60.1 nM | CC50 [22, 30]: > 100000 nM | TGI [22]: >100000 nM | GI50 ([23]; Homo sapiens): 1240 nM | CC50 [23, 30]: 19000 nM | TGI [23]: 3880 nM | TGI [24]: 13100 nM | GI50 ([24]; Homo sapiens): 430 nM | CC50 [24, 30]: 90200 nM | GI50 ([25]; Homo sapiens): 406 nM | CC50 [25, 30]: > 100000 nM | TGI [25]: 2740 nM | GI50 ([26]; Homo sapiens, U-251): 199 nM | CC50 ([26]; Homo sapiens, U-251, read-out: LC50 (the source's name)): 3760 nM | TGI [26]: 820 nM | GI50 ([27]; Homo sapiens): 458 nM | CC50 [27, 30]: > 100000 nM | TGI [27]: 10200 nM | GI50 ([28]; Homo sapiens): 464 nM | CC50 [28, 30]: 70400 nM | TGI [28]: 3400 nM | GI50 ([29]; Homo sapiens): 317 nM | CC50 [29, 30]: > 100000 nM | TGI [29]: >100000 nM
